Results: patent US20260347319A1, “YAP/TAZ-TEAD ONCOPROTEINS INHIBITORS” (BridGene Biosciences, Inc., priority 2022, published 2026)

Tests used:
Assay type in all cases: cell-based
TEAD1 [1] = test: MCF-7 TEAD1-luciferase reporter assay (MCF7-TEAD-Luc); details: MCF7 cells, overnight; for IC50: Homo sapiens; for TEAD1-Luc MCF7: Max Inhibition: % of DMSO-treated control
Procedure, shortened: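 MCF7 cells with a TEAD luciferase reporter were seeded at 10,000 per well, grown 24 hours at 37° C, then treated overnight with serially diluted compound. Luciferase signal was normalized as % inhibition relative to DMSO controls, and IC50 came from a four-parameter fit.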

NCI-H226 cells = test: Cell proliferation and viability assay (CPA) in NCI-H226 cells; details: up to 6 d; for IC50: Homo sapiens, 144 h, read-out: CPA NCI-H226 IC50 Ave
Procedure: Compound potency and efficacy in inhibiting cell proliferation and viability was assessed in multiple cell lines. For example, NCI-H226 cells (ATCC #CRL-5826) were seeded at 2000 cells in 200 μL medium per well of a 96-well plate (Corning #3610) and incubated at 37° C. for 24 hours, then treated with serial diluted compounds for up to 6 d. Viable cells were measured by CellTiter-Glo 2.0 Cell Viability Assay (Promega #G9243), and the luminescence signal was read using an EnSight Multimode plate reader (PerkinElmer, model 9MLDHH34000000, integration time 100 ms) with Kaleido 3.0. software. For data analysis, dose-dependent curves were plotted as “inhibition” (% of DMSO-treated control wells), and were fitted by four-parametric model in GraphPad Prism to obtain IC50 values. […]

H2052 cells = test: Cell proliferation and viability assay (CPA) in H2052 cells; details: for IC50: Homo sapiens, NCI-H2052, read-out: CPA H2052 IC50 Ave
Procedure: Compound potency and efficacy in inhibiting cell proliferation and viability was assessed in multiple cell lines. For example, NCI-H226 cells (ATCC #CRL-5826) were seeded at 2000 cells in 200 μL medium per well of a 96-well plate (Corning #3610) and incubated at 37° C. for 24 hours, then treated with serial diluted compounds for up to 6 d. Viable cells were measured by CellTiter-Glo 2.0 Cell Viability Assay (Promega #G9243), and the luminescence signal was read using an EnSight Multimode plate reader (PerkinElmer, model 9MLDHH34000000, integration time 100 ms) with Kaleido 3.0. software. For data analysis, dose-dependent curves were plotted as “inhibition” (% of DMSO-treated control wells), and were fitted by four-parametric model in GraphPad Prism to obtain IC50 values.
Alternatively, cells were plated at 2000 cells in 200 μL medium per well of a 96-well plate (Corning #3585) overnight, treated with compound for 7 days, cell density images taken by Incycte S3 live cell analysis instrument (Sartorius) every 24 hours at the same time. Images were analyzed by Incucyte's AI-driven software to get C “% confluence” for every image. Dose-dependent curves were plotted as “% inhibition” (% o of DMSO-treated control wells) and were fitted by four-parametric model in GraphPad Prism to obtain IC50 values.

TEAD1 [2] = test: Palmitoylation assay, TEAD1 (HEK293T cells); details: 3 um compound, 24 hours
Procedure: (§1) Tagged TEAD constructs were cloned in pTriEx-6 (Novagen #71559) and transiently transfected into HEK293T cells for 24 hours. Then cells were treated with compounds for 24 hours, or treated with compounds plus 25 μM alkyne palmitic acid (for palmitoylation assay), and cell pellets were collected. Cells were lysed in lysis Buffer (100 mM Tris-HCl, 150 mM NaCl, 1% Triton, 5 mg/mL protease inhibitor cocktail), centrifuged for 10 min at 15000 g, TEAD proteins were pulled down and subjected to click-chemistry with TAMRA azide (Click Chemistry Tools #AZ109) to label compound-modified protein. Protein bands were separated by SDS-gel electrophoresis, target bands at expected molecular size were visualized using BioRad ChemiDoc Imaging system, band intensities were quantified by Image Studio.

TEAD1 [3] = test: ELISA assay in H226 cells, TEAD1; details: Homo sapiens, NCI-H226, overnight
Procedure: (§2) ELISA: 750k cells were plated per well of 6-well plate for 24 hours, treated with compounds overnight, cells were then lysed in lysis Buffer with 5 mg/mL protease inhibitor (Cell Signaling #9803), centrifuged at 12000 g for 5 min. Cell lysates were normalized to 2 mg/mL for subsequent assays. A 96-well assay plate (Corning #3690) was coated with TEAD antibodies (anti-TEAD1: Cell Signaling #12292, 1:100; anti-TEAD2: LSBio #LS-C101693-100, 1:50; anti-TEAD3: Abcam #ab75192, 1:100; anti-TEAD4: Abcam #ab58310, 1:400) overnight at 4° C. Plates were washed with TBST (Thermo Fisher #28360) for 3 times, blocked in 100 μL blocking buffer (2% BSA-TBST, Sigma #A7030) for 1 hour at room temperature. 50 μL cell lysates were incubated overnight at 4° C. with shaking. The next day, plates were washed with TBST three times, incubated with 1:125 anti-YPA-HRP (Cell Signaling #15028S) for 4 hours at 4° C., followed by 3× washing in TBST, then incubated in HRP substrate (Thermo Fisher #34021) for 10 min at room temperature, reaction was stopped by TMB stop solution (Thermo Fisher #N600). Signal was read at wavelength 450 nm.

TEAD2 [4] = biological target: T1, TEAD2 (Homo sapiens, UniProt Q15562); test: ELISA assay in H226 cells, TEAD2; set-up: endogenous in cells; host or cells: H226; details: overnight
Procedure: as §2

TEAD3 [5] = biological target: T2, TEAD3 (Homo sapiens, UniProt Q99594); test: ELISA assay in H226 cells, TEAD3; set-up: endogenous in cells; host or cells: H226; details: overnight
Procedure: as §2
Target sequence in this assay (Q99594 2-435 limits assumed): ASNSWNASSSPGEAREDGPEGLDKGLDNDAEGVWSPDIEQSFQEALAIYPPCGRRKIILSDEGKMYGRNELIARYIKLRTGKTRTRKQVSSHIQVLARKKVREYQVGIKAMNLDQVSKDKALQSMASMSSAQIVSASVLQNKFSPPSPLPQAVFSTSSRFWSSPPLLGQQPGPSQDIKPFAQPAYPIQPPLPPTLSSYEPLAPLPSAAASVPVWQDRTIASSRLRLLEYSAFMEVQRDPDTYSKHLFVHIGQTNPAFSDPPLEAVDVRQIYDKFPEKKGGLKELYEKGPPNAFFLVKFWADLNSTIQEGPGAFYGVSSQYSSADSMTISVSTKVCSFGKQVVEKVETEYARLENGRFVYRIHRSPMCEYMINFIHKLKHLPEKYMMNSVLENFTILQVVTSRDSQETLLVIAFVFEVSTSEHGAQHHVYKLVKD

TEAD4 [6] = biological target: T3, TEAD4 (Homo sapiens, UniProt Q15561); test: ELISA assay in H226 cells, TEAD4; set-up: endogenous in cells; host or cells: H226; details: overnight
Procedure: as §2

TEAD2 [7] = biological target: T1, TEAD2; test: Palmitoylation assay, TEAD2 (HEK293T cells); set-up: unspecified tag; expressed in transfected cells; host or cells: HEK293T; details: 3 um compound, 24 hours
Procedure: as §1

TEAD3 [8] = biological target: T2, TEAD3; test: Palmitoylation assay, TEAD3 (HEK293T cells); set-up: unspecified tag; expressed in transfected cells; host or cells: HEK293T; details: 3 um compound, 24 hours
Procedure: as §1
Target sequence in this assay (Q99594 whole entry): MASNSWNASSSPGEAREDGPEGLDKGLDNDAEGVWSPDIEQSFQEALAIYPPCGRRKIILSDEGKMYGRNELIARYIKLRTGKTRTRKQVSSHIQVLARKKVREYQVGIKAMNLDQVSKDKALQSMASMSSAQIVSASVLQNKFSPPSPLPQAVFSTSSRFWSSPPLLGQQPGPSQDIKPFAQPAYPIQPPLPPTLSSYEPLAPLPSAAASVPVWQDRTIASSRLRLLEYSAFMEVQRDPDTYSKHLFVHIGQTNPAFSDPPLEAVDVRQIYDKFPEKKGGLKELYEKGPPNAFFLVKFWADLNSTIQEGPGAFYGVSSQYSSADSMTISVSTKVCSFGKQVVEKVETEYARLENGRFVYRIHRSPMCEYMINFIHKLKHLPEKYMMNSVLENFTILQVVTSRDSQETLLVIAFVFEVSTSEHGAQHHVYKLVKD

TEAD4 [9] = biological target: T3, TEAD4; test: Palmitoylation assay, TEAD4 (HEK293T cells); set-up: unspecified tag; expressed in transfected cells; host or cells: HEK293T; details: 3 um compound, 24 hours
Procedure: as §1

T3 sequence (Q15561 whole entry): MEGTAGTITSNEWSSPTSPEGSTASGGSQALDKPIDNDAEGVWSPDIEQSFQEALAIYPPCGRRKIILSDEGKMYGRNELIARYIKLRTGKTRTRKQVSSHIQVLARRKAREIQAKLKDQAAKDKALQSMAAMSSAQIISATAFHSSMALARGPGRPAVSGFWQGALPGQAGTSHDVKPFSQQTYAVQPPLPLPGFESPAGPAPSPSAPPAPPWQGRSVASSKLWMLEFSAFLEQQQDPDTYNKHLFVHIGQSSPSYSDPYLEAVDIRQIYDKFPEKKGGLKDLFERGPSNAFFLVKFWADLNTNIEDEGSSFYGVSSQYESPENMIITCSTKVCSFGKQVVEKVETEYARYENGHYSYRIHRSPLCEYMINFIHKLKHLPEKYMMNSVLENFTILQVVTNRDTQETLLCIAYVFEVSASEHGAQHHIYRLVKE
T1 sequence (Q15562 whole entry): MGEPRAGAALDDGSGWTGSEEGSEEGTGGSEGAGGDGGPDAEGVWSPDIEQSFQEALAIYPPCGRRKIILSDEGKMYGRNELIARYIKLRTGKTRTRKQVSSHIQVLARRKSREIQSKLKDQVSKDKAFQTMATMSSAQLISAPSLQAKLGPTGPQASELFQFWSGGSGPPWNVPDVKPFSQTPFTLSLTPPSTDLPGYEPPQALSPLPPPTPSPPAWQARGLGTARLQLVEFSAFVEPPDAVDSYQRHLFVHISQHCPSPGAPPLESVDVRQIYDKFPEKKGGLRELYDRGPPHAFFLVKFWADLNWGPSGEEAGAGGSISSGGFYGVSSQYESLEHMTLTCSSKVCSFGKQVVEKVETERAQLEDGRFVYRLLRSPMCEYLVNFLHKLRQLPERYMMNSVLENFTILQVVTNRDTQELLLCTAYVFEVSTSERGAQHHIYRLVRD

Row | IC50 (TEAD1 [1]) [µM] | IC50 (NCI-H226 cells) [µM] | IC50 (H2052 cells) [µM] | IC50 (TEAD1 [3]) [µM] | IC50 (TEAD2 [4]) [µM] | IC50 (TEAD3 [5]) [µM] | IC50 (TEAD4 [6]) [µM] | TEAD2 Inh (palmitoylation) (TEAD2 [7]) [%] | TEAD3 Inh (palmitoylation) (TEAD3 [8]) [%] | TEAD4 Inh (palmitoylation) (TEAD4 [9]) [%] | SMILES | TEAD1-Luc MCF7: Max Inhibition (TEAD1 [1]) | CPA NCI-H226 Max Inh Ave (NCI-H226 cells) | CPA H2052 Max Inh Ave (H2052 cells) | TEAD1 Inh (palmitoylation) (TEAD1 [2]) [%]
1 | ≤ 0.01 | ≤ 0.1 | ≤ 0.1 | 0.013 | 0.089 | 0.0072 | 1.01 | 57 | 98 | 52 | C=CC(=O)N1CC[C@H](/C=C/c2ccc(C(F)(F)F)cc2)C1 (single isomer, unassigned) [Example 10] | A (A ≥ 75%) | B (75% > B ≥ 50%) | B (75% > B ≥ 50%) | 94
2 | 0.01 to 0.1 |  |  | 0.0664 | 0.0177 | 0.107 | 0.219 | 54 | 90 | 52 | C=CC(=O)N1C[C@@H](/C=C/c2ccc(C(F)(F)F)cc2)[C@H](Nc2ncccn2)C1 (single isomer, unassigned) [Example 83] | A (A ≥ 75%) |  |  | 93
3 | ≤ 0.01 | ≤ 0.1 | ≤ 0.1 | 0.0087 | 0.0034 | 0.0056 | 0.0155 | 69 | 95 | 71 | C=CC(=O)N1CCC(C#Cc2ccc(C(F)(F)F)cc2)C1 (centres unmarked) [Example 38, 1-(3-((4-(trifluoromethyl)phenyl)ethynyl)pyrrolidin-1-yl)prop-2-en-1-one] | A (A ≥ 75%) | B (75% > B ≥ 50%) | B (75% > B ≥ 50%) | 93
